# Measured values from PubChem BioAssay AID2060601 (Molecular Pharmacology Branch, DTP, NCI, 2025).
# pIC50: −log10 of the molar value.
# System: 874868-142-R-J2-PDC complex spheroids, growth % test/control
# Assay: Anticancer human tumor 874868-142-R-J2-PDC patient-derived head and neck squamous carcinoma cell line growth inhibition [CLK]
# Settings: for pIC50: curve of first compound; for viability, T/C: stronger effect = lower value
# Method in brief: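 Patient-derived tumor cells grown as complex spheroids with HUVEC endothelial cells and mesenchymal stem cells, treated with drug combinations. Concentrations descend in half-log steps from near clinical Cmax, or from 10 microM if Cmax unknown.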
# [1] = second compound 0.0316 µM, first compound 0.0316 µM
# [2] = second compound 0.0316 µM, first compound 0.1 µM
# [3] = second compound 0.0316 µM, first compound 0.316 µM
# [4] = second compound 0.0316 µM, first compound 1 µM
# [5] = second compound 0.0316 µM, first compound 3.16 µM
# [6] = second compound 0.0316 µM, first compound 10 µM
# [7] = second compound 0.1 µM, first compound 0.0316 µM
# [8] = second compound 0.1 µM, first compound 0.1 µM
# [9] = second compound 0.1 µM, first compound 0.316 µM
# [10] = second compound 0.1 µM, first compound 1 µM
# [11] = second compound 0.1 µM, first compound 3.16 µM
# [12] = second compound 0.1 µM, first compound 10 µM
# [13] = second compound 0.316 µM, first compound 0.0316 µM
# [14] = second compound 0.316 µM, first compound 0.1 µM
# [15] = second compound 0.316 µM, first compound 0.316 µM
# [16] = second compound 0.316 µM, first compound 1 µM
# [17] = second compound 0.316 µM, first compound 3.16 µM
# [18] = second compound 0.316 µM, first compound 10 µM
# [19] = second compound 1 µM, first compound 0.0316 µM
# [20] = second compound 1 µM, first compound 0.1 µM
# [21] = second compound 1 µM, first compound 0.316 µM
# [22] = second compound 1 µM, first compound 1 µM
# [23] = second compound 1 µM, first compound 3.16 µM
# [24] = second compound 1 µM, first compound 10 µM
# [25] = second compound 3.16 µM, first compound 0.0316 µM
# [26] = second compound 3.16 µM, first compound 0.1 µM
# [27] = second compound 3.16 µM, first compound 0.316 µM
# [28] = second compound 3.16 µM, first compound 1 µM
# [29] = second compound 3.16 µM, first compound 3.16 µM
# [30] = second compound 3.16 µM, first compound 10 µM
# [31] = second compound 10 µM, first compound 0.0316 µM
# [32] = second compound 10 µM, first compound 0.1 µM
# [33] = second compound 10 µM, first compound 0.316 µM
# [34] = second compound 10 µM, first compound 1 µM
# [35] = second compound 10 µM, first compound 3.16 µM
# [36] = second compound 10 µM, first compound 10 µM
# 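Further: spheroids exposed to the compounds for 7 days.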
# 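Wherever viability, T/C is given: 100% = DMSO vehicle control viability.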
compound,measurement,setting,value
C#Cc1c(F)ccc2cc(O)cc(-c3ncc4c(N5CC6CCC(C5)N6)nc(OCC56CCCN5CC(F)C6)nc4c3F)c12 (centres undefined) + CNC(=O)c1ccc(Nc2nc(OC3CCCC3)c3c(-c4ccc5nc(C)oc5c4)c[nH]c3n2)c(OC)c1,pIC50,second compound 0.0316 µM,5.18
same,pIC50,second compound 0.1 µM,6.06
same,pIC50,second compound 0.316 µM,7.05
same,pIC50,second compound 1 µM,> 7.50
same,pIC50,second compound 3.16 µM,> 7.50
same,pIC50,second compound 10 µM,> 7.50
same,"viability, T/C",[1],92.7%
same,"viability, T/C",[2],75.7%
same,"viability, T/C",[3],80.7%
same,"viability, T/C",[4],65%
same,"viability, T/C",[5],54.3%
same,"viability, T/C",[6],47.1%
same,"viability, T/C",[7],72.5%
same,"viability, T/C",[8],84.5%
same,"viability, T/C",[9],66.5%
same,"viability, T/C",[10],48.4%
same,"viability, T/C",[11],51%
same,"viability, T/C",[12],43.3%
same,"viability, T/C",[13],58.1%
same,"viability, T/C",[14],48.5%
same,"viability, T/C",[15],44.2%
same,"viability, T/C",[16],43%
same,"viability, T/C",[17],39.8%
same,"viability, T/C",[18],39%
same,"viability, T/C",[19],41.6%
same,"viability, T/C",[20],39.4%
same,"viability, T/C",[21],36.5%
same,"viability, T/C",[22],35.2%
same,"viability, T/C",[23],35.1%
same,"viability, T/C",[24],31.6%
same,"viability, T/C",[25],37.1%
same,"viability, T/C",[26],37.8%
same,"viability, T/C",[27],31.1%
same,"viability, T/C",[28],30%
same,"viability, T/C",[29],30.5%
same,"viability, T/C",[30],33.8%
same,"viability, T/C",[31],35.8%
same,"viability, T/C",[32],37.4%
same,"viability, T/C",[33],33.9%
same,"viability, T/C",[34],32.6%
same,"viability, T/C",[35],32.4%
same,"viability, T/C",[36],26.8%
CC(CO)NC(=O)c1cc(-c2ccc(Cl)cc2)nn(-c2cnn(C)c2)c1=O (centres undefined) + CNC(=O)c1ccc(Nc2nc(OC3CCCC3)c3c(-c4ccc5nc(C)oc5c4)c[nH]c3n2)c(OC)c1,pIC50,second compound 0.0316 µM,< 5.00
same,pIC50,second compound 0.1 µM,< 5.00
same,pIC50,second compound 0.316 µM,< 5.00
same,pIC50,second compound 1 µM,> 7.50
same,pIC50,second compound 3.16 µM,> 7.50
same,pIC50,second compound 10 µM,> 7.50
same,"viability, T/C",[1],98%
same,"viability, T/C",[2],90.1%
same,"viability, T/C",[3],90.2%
same,"viability, T/C",[4],120%
same,"viability, T/C",[5],125%
same,"viability, T/C",[6],104%
same,"viability, T/C",[7],82.2%
same,"viability, T/C",[8],90%
same,"viability, T/C",[9],82.6%
same,"viability, T/C",[10],85.9%
same,"viability, T/C",[11],94.8%
same,"viability, T/C",[12],109%
same,"viability, T/C",[13],50.6%
same,"viability, T/C",[14],51.4%
same,"viability, T/C",[15],56.2%
same,"viability, T/C",[16],48.5%
same,"viability, T/C",[17],58.5%
same,"viability, T/C",[18],67.4%
same,"viability, T/C",[19],52.4%
same,"viability, T/C",[20],38.1%
same,"viability, T/C",[21],34.9%
same,"viability, T/C",[22],43.1%
same,"viability, T/C",[23],50.8%
same,"viability, T/C",[24],50.7%
same,"viability, T/C",[25],40.3%
same,"viability, T/C",[26],36.8%
same,"viability, T/C",[27],44.3%
same,"viability, T/C",[28],41.2%
same,"viability, T/C",[29],52.4%
same,"viability, T/C",[30],44.4%
same,"viability, T/C",[31],34.7%
same,"viability, T/C",[32],36.4%
same,"viability, T/C",[33],36.1%
same,"viability, T/C",[34],33.7%
same,"viability, T/C",[35],50.9%
same,"viability, T/C",[36],42.2%
